Source: patent publication US20250154141A1 (University of Florida Research Foundation, Incorporated, priority 2021, published 2025)
Like-named read-outs stand apart in the source and are kept apart here.

What was measured:
MOLT-4 = assay: Cell viability assay (MTS) in MOLT-4 cells; type: cell-based; details: Homo sapiens
Experimental: (§1) Acute lymphoblastic leukemia cells (MOLT-4 and RS4; 11) were incubated with increasing concentrations of Bcl-xL degraders for 48 h. Cell viability was measured by tetrazolium-based MTS assay.

RS4; 11 = assay: Cell viability assay (MTS) in RS4; 11 cells; type: cell-based; design: Anti-Cancer Activity IC50 (48 hr) RS4; 11: scale not given here; details: for IC50: Homo sapiens
Experimental: as §1

[1] = MOLT-4, 48 h, read-out: Anti-Cancer Activity IC50 (48 hr) MOLT-4
[2] = RS4-11, 48 h, read-out: Anti-Cancer Activity IC50 (48 hr) RS4, 11
[3] = MOLT-4, Table 2A, 48 hr, MTS, read-out: Anti-Cancer Activity IC50 (48 hr) MOLT-4
[4] = RS4-11, Table 2A, 48 hr, MTS, read-out: Anti-Cancer Activity IC50 (48 hr) RS4, 11
[5] = MOLT-4, Table 2, 48 hr, MTS, read-out: Anti-Cancer Activity IC50 (48 hr) MOLT-4
[6] = RS4-11, Table 2, 48 hr, MTS, read-out: Anti-Cancer Activity IC50 (48 hr) RS4, 11

IC50 (MOLT-4; [5]) [µM] | IC50 (RS4; 11; [6]) [µM] | Structure (SMILES) | also measured
– | – | Cc1ncsc1-c1ccc([C@H](C)NC(=O)[C@@H]2C[C@@H](O)CN2C(=O)[C@@H](NC(=O)CN2C3CC2CN(CC(=O)N2CCN(CC4(C)CCC(c5ccc(Cl)cc5)=C(CN5CCN(c6ccc(C(=O)NS(=O)(=O)c7ccc(N[C@H](CCN8CCOCC8)CSc8ccccc8)c(S(=O)(=O)C(F)(F)F)c7)cc6)CC5)C4)CC2)C3)C(C)(C)C)cc1 (stereo partly shown) [Compound 31] | IC50 (MOLT-4; [1]): 0.1 to 0.5 µM; IC50 (RS4; 11; [2]): 0.1 to 0.5 µM
– | – | Cc1ncsc1-c1ccc([C@H](C)NC(=O)[C@@H]2C[C@@H](O)CN2C(=O)[C@@H](NC(=O)CN2CCN(CCNC(=O)c3ccc(CN4CCN(C[C@]5(C)CCC(c6ccc(Cl)cc6)=C(CN6CCN(c7ccc(C(=O)NS(=O)(=O)c8ccc(N[C@H](CCN9CCCOCC9)CSc9ccccc9)c(S(=O)(=O)C(F)(F)F)c8)cc7)CC6)C5)CC4)nc3)CC2)C(C)(C)C)cc1 [Compound 114] | IC50 (MOLT-4; [3]): < 0.02 µM; IC50 (RS4; 11; [4]): < 0.02 µM
0.5 to 10 | 0.1 to 0.5 | Cc1ncsc1-c1ccc([C@H](C)NC(=O)[C@@H]2C[C@@H](O)CN2C(=O)[C@@H](NC(=O)CCCCCCCNC(=O)c2ccc(N3CCN(CC4(C)CCC(c5ccc(Cl)cc5)=C(CN5CCN(c6ccc(C(=O)NS(=O)(=O)c7ccc(N[C@H](CCN8CCOCC8)CSc8ccccc8)c(S(=O)(=O)C(F)(F)F)c7)cc6)CC5)C4)CC3)cn2)C(C)(C)C)cc1 (stereo partly shown) [Compound 6] | –
– | – | Cc1ncsc1-c1ccc([C@H](C)NC(=O)[C@@H]2C[C@@H](O)CN2C(=O)[C@@H](NC(=O)CN2CCN(C(=O)CC(=O)N3CCN(C[C@]4(C)CCC(c5ccc(Cl)cc5)=C(CN5CCN(c6ccc(C(=O)NS(=O)(=O)c7ccc(N[C@H](CCN8CCCOCC8)CSc8ccccc8)c(S(=O)(=O)C(F)(F)F)c7)cc6)CC5)C4)CC3)CC2)C(C)(C)C)cc1 [Compound 115] | IC50 (MOLT-4; [1]): < 0.02 µM; IC50 (RS4; 11; [2]): < 0.02 µM
< 0.02 | < 0.02 | Cc1ncsc1-c1ccc([C@H](C)NC(=O)[C@@H]2C[C@@H](O)CN2C(=O)[C@@H](NC(=O)CCCCCCC(=O)N2CCN(C[C@]3(C)CCC(c4ccc(Cl)cc4)=C(CN4CCN(c5ccc(C(=O)NS(=O)(=O)c6ccc(N[C@H](CCN7CCCOCC7)CSc7ccccc7)c([N+](=O)[O-])c6)cc5)CC4)C3)CC2)C(C)(C)C)cc1 [Compound 55, (2S,4R)-1-((S)-2-(8-(4-(((R)-6-((4-(4-(((4-(((R)-4-(1,4-oxazepan-4-yl)-1-(phenylthio)butan-2-yl)amino)-3-nitrophenyl)sulfonyl)carbamoyl)phenyl)piperazin-1-yl)methyl)-4′-chloro-4-methyl-2,3,4,5-tetrahydro-[1,1′-biphenyl]-4-yl)methyl)piperazin-1-yl)-8-oxooctanamido)-3,3-dimethylbutanoyl)-4-hydroxy-N—((S)-1-(4-(4-methylthiazol-5-yl)phenyl)ethyl)pyrrolidine-2-carboxamide] | IC50 (MOLT-4; MOLT-4, Table 4, 48 h, read-out: MOLT-4 48 h IC50): 0.011 µM; IC50 (RS4; 11; RS4-11, Table 4, 48 h, read-out: RS4 48 h IC50): 0.0032 µM
< 0.02 | < 0.02 | Cc1ncsc1-c1ccc([C@H](C)NC(=O)[C@@H]2C[C@@H](O)CN2C(=O)[C@@H](NC(=O)CCCCCCC(=O)N2CCN(C[C@]3(C)CCC(c4ccc(Cl)cc4)=C(CN4CCN(c5ccc(C(=O)NS(=O)(=O)c6ccc(N[C@H](CCN7CCCCC7)CSc7ccccc7)c(S(=O)(=O)C(F)(F)F)c6)cc5)CC4)C3)CC2)C(C)(C)C)cc1 [Compound 58, (2S,4R)-1-((S)-2-(8-(4-(((R)-4′-chloro-4-methyl-6-((4-(4-(((4-(((R)-1-(phenylthio)-4-(piperidin-1-yl)butan-2-yl)amino)-3-((trifluoromethyl)sulfonyl)phenyl)sulfonyl)carbamoyl)phenyl)piperazin-1-yl)methyl)-2,3,4,5-tetrahydro-[1,1′-biphenyl]-4-yl)methyl)piperazin-1-yl)-8-oxooctanamido)-3,3-dimethylbutanoyl)-4-hydroxy-N—((S)-1-(4-(4-methylthiazol-5-yl)phenyl)ethyl)pyrrolidine-2-carboxamide] | –
– | – | Cc1ncsc1-c1ccc([C@H](C)NC(=O)[C@@H]2C[C@@H](O)CN2C(=O)[C@@H](NC(=O)CN(C)CCC(=O)N2CCC(C3CCN(C[C@]4(C)CCC(c5ccc(Cl)cc5)=C(CN5CCN(c6ccc(C(=O)NS(=O)(=O)c7ccc(N[C@H](CCN8CCCOCC8)CSc8ccccc8)c(S(=O)(=O)C(F)(F)F)c7)cc6)CC5)C4)CC3)CC2)C(C)(C)C)cc1 [Compound 117] | IC50 (MOLT-4; [3]): 0.02 to 0.1 µM; IC50 (RS4; 11; [4]): < 0.02 µM
0.02 to 0.1 | 0.1 to 0.5 | Cc1ncsc1-c1ccc([C@H](C)NC(=O)[C@@H]2C[C@@H](O)CN2C(=O)[C@@H](NC(=O)CCCCCNC(=O)c2ccc(N3CCN(CC4(C)CCC(c5ccc(Cl)cc5)=C(CN5CCN(c6ccc(C(=O)NS(=O)(=O)c7ccc(N[C@H](CCN8CCOCC8)CSc8ccccc8)c(S(=O)(=O)C(F)(F)F)c7)cc6)CC5)C4)CC3)cn2)C(C)(C)C)cc1 (stereo partly shown) [Compound 5] | –
0.02 to 0.1 | < 0.02 | Cc1ncsc1-c1ccc([C@H](C)NC(=O)[C@@H]2C[C@@H](O)CN2C(=O)[C@@H](NC(=O)CCCCCCC(=O)N2CCN(CC3(C)CCC(c4ccc(Cl)cc4)=C(CN4CCN(c5ccc(C(=O)NS(=O)(=O)c6ccc(N[C@H](CCN7CCC(O)CC7)CSc7ccccc7)c([N+](=O)[O-])c6)cc5)CC4)C3)CC2)C(C)(C)C)cc1 (stereo partly drawn) [Compound 46, (2S,4R)-1-((2S)-2-(8-(4-((4′-chloro-6-((4-(4-(((4-(((R)-4-(4-hydroxypiperidin-1-yl)-1-(phenylthio)butan-2-yl)amino)-3-nitrophenyl)sulfonyl)carbamoyl)phenyl)piperazin-1-yl)methyl)-4-methyl-2,3,4,5-tetrahydro-[1,1′-biphenyl]-4-yl)methyl)piperazin-1-yl)-8-oxooctanamido)-3,3-dimethylbutanoyl)-4-hydroxy-N—((S)-1-(4-(4-methylthiazol-5-yl)phenyl)ethyl)pyrrolidine-2-carboxamide] | IC50 (MOLT-4; MOLT-4, Table 5, 48 h, read-out: MOLT-4 48 h IC50): 0.0559 µM; IC50 (RS4; 11; RS4-11, Table 5, 48 h, read-out: RS4 48 h IC50): 0.0058 µM
– | – | Cc1ncsc1-c1ccc([C@H](C)NC(=O)[C@@H]2C[C@@H](O)CN2C(=O)[C@@H](NC(=O)CCS(=O)(=O)N2CCN(C[C@]3(C)CCC(c4ccc(Cl)cc4)=C(CN4CCN(c5ccc(C(=O)NS(=O)(=O)c6ccc(N[C@H](CCN7CCCOCC7)CSc7ccccc7)c(S(=O)(=O)C(F)(F)F)c6)cc5)CC4)C3)CC2)C(C)(C)C)cc1 [Compound 109] | IC50 (MOLT-4; [3]): 0.1 to 0.5 µM; IC50 (RS4; 11; [4]): 0.02 to 0.1 µM
0.02 to 0.1 | 0.02 to 0.1 | Cc1ncsc1-c1ccc([C@H](C)NC(=O)[C@@H]2C[C@@H](O)CN2C(=O)[C@@H](NC(=O)CCCNC(=O)c2ccc(N3CCN(CC4(C)CCC(c5ccc(Cl)cc5)=C(CN5CCN(c6ccc(C(=O)NS(=O)(=O)c7ccc(N[C@H](CCN8CCOCC8)CSc8ccccc8)c(S(=O)(=O)C(F)(F)F)c7)cc6)CC5)C4)CC3)nc2)C(C)(C)C)cc1 (stereo partly shown) [Compound 2] | –
0.02 to 0.1 | – | Cc1ncsc1-c1ccc([C@H](C)NC(=O)[C@@H]2C[C@@H](O)CN2C(=O)[C@@H](NC(=O)CCCCCCC(=O)N2CCN(CC3(C)CCC(c4ccc(Cl)cc4)=C(CN4CCN(c5ccc(C(=O)NS(=O)(=O)c6ccc(N[C@H](CCN(C)C7CCC7)CSc7ccccc7)c([N+](=O)[O-])c6)cc5)CC4)C3)CC2)C(C)(C)C)cc1 (stereo partly drawn) [Compound 36, (2S,4R)-1-((2S)-2-(8-(4-((4′-chloro-6-((4-(4-(((4-(((R)-4-(cyclobutyl(methyl)amino)-1-(phenylthio)butan-2-yl)amino)-3-nitrophenyl)sulfonyl)carbamoyl)phenyl)piperazin-1-yl)methyl)-4-methyl-2,3,4,5-tetrahydro-[1,1′-biphenyl]-4-yl)methyl)piperazin-1-yl)-8-oxooctanamido)-3,3-dimethylbutanoyl)-4-hydroxy-N—((S)-1-(4-(4-methylthiazol-5-yl)phenyl)ethyl)pyrrolidine-2-carboxamide] | Anti-Cancer Activity IC50 (48 hr) RS4; 11 (RS4; 11; Table 2, 48 hr, MTS): ++ ++
0.5 to 10 | 0.02 to 0.1 | Cc1ncsc1-c1ccc([C@H](C)NC(=O)[C@@H]2C[C@@H](O)CN2C(=O)[C@@H](NC(=O)CCCCCCC(=O)N2CCN(CC3(C)CCC(c4ccc(Cl)cc4)=C(CN4CCN(c5ccc(C(=O)NS(=O)(=O)c6ccc(N[C@H](CCO)CSc7ccccc7)c([N+](=O)[O-])c6)cc5)CC4)C3)CC2)C(C)(C)C)cc1 (stereo partly drawn) [Compound 49, (2S,4R)-1-((2S)-2-(8-(4-((4′-chloro-6-((4-(4-(((4-(((R)-4-hydroxy-1-(phenylthio)butan-2-yl)amino)-3-nitrophenyl)sulfonyl)carbamoyl)phenyl)piperazin-1-yl)methyl)-4-methyl-2,3,4,5-tetrahydro-[1,1′-biphenyl]-4-yl)methyl)piperazin-1-yl)-8-oxooctanamido)-3,3-dimethylbutanoyl)-4-hydroxy-N—((S)-1-(4-(4-methylthiazol-5-yl)phenyl)ethyl)pyrrolidine-2-carboxamide] | –
0.02 to 0.1 | 0.1 to 0.5 | Cc1ncsc1-c1ccc([C@H](C)NC(=O)[C@@H]2C[C@@H](O)CN2C(=O)[C@@H](NC(=O)CCCCCCC(=O)N2C(C)CN(C[C@]3(C)CCC(c4ccc(Cl)cc4)=C(CN4CCN(c5ccc(C(=O)NS(=O)(=O)c6ccc(N[C@H](CCN7CCCOCC7)CSc7ccccc7)c(S(=O)(=O)C(F)(F)F)c6)cc5)CC4)C3)CC2C)C(C)(C)C)cc1 (stereo partly shown) [compound 83] | –
0.02 to 0.1 | 0.02 to 0.1 | Cc1ncsc1-c1ccc([C@H](C)NC(=O)[C@@H]2C[C@@H](O)CN2C(=O)[C@@H](NC(=O)CCCCCNC(=O)c2ccc(N3CCN(CCN(C)CC4(C)CCC(c5ccc(Cl)cc5)=C(CN5CCN(c6ccc(C(=O)NS(=O)(=O)c7ccc(N[C@H](CCN8CCOCC8)CSc8ccccc8)c(S(=O)(=O)C(F)(F)F)c7)cc6)CC5)C4)CC3)cc2)C(C)(C)C)cc1 (stereo partly shown) [Compound 15] | –
